Experimental data as given in patent publication US9926302B2, “Heteroaryl substituted heterocyclyl sulfones” (priority 2014, dated 2018).

Target: T1, Human CaV2.2 channels (Homo sapiens, UniProt Q00975)
T1 construct: expressed in transfected cells
Experiment: Fluorescence assay for CaV2.2 channels using potassium depolarization to induce channel opening (FLIPR, Fluo 4)
Format: cell-based
Settings: alternative assay buffer 30 mM KCl (inactivated channel state), HEK293 cells stably expressing human CaV2.2; for inhibition at 3 µM: HEK293, 3 μM test compound, read-out: Activity Category: %-Inhib (CaV2.2) @3 μM @30 mM KCl
Method in brief: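 HEK293 cells stably co-expressing CaV2.2 with alpha2-delta and beta subunits plus Kir2.3, loaded with 2 μM Fluo 4 and pre-incubated 15 min at 25° C with compound in 1 mM or 30 mM KCl buffer (pH 7.4; latter promotes inactivated state). Depolarized by KCl addition; peak fluorescence amplitude normalized to baseline gives inhibition.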

T1 sequence (P54289 947-1103): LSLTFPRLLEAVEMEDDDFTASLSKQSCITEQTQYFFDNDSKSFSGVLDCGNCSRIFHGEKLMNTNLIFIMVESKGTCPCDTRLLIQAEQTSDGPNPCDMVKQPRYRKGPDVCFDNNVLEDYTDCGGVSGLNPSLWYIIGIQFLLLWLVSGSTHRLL
T1 sequence (P54289 25-946): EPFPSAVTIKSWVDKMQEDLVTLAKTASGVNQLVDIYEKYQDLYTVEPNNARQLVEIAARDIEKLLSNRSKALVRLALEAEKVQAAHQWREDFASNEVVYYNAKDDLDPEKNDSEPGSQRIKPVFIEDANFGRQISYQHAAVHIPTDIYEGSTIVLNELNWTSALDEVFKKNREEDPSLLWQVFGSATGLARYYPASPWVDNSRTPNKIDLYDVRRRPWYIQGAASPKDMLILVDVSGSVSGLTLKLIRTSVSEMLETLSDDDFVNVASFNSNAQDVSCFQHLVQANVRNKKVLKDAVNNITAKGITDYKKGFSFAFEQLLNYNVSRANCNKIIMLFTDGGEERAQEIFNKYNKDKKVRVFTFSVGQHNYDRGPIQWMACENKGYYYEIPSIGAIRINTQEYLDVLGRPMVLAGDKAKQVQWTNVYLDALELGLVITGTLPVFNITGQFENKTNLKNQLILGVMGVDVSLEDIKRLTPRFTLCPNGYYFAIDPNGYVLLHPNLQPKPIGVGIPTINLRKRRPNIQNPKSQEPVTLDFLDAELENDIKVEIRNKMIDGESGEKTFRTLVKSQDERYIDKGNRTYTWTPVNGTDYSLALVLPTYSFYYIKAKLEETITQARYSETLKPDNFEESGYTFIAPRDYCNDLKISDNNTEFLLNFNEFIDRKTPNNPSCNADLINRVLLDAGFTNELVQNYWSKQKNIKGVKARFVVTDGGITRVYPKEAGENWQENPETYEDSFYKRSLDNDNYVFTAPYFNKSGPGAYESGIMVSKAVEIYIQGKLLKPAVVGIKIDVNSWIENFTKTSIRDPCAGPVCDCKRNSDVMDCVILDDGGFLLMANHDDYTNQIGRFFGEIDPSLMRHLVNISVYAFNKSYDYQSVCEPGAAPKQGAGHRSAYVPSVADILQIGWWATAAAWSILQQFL
T1 sequence (P54284 whole entry, further chain): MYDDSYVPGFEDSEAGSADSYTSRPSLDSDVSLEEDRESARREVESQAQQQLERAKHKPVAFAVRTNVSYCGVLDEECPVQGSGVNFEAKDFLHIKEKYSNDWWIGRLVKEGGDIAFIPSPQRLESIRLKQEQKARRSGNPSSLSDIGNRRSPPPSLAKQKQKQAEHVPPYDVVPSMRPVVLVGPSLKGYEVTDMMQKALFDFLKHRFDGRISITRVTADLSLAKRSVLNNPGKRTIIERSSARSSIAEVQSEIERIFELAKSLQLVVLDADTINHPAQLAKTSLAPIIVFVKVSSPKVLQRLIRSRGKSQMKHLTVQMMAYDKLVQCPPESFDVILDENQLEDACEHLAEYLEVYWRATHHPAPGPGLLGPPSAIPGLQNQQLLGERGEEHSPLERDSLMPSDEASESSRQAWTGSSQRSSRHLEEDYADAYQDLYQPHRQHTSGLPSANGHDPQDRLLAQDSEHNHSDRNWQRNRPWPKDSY
T1 sequence (Q00975 whole entry): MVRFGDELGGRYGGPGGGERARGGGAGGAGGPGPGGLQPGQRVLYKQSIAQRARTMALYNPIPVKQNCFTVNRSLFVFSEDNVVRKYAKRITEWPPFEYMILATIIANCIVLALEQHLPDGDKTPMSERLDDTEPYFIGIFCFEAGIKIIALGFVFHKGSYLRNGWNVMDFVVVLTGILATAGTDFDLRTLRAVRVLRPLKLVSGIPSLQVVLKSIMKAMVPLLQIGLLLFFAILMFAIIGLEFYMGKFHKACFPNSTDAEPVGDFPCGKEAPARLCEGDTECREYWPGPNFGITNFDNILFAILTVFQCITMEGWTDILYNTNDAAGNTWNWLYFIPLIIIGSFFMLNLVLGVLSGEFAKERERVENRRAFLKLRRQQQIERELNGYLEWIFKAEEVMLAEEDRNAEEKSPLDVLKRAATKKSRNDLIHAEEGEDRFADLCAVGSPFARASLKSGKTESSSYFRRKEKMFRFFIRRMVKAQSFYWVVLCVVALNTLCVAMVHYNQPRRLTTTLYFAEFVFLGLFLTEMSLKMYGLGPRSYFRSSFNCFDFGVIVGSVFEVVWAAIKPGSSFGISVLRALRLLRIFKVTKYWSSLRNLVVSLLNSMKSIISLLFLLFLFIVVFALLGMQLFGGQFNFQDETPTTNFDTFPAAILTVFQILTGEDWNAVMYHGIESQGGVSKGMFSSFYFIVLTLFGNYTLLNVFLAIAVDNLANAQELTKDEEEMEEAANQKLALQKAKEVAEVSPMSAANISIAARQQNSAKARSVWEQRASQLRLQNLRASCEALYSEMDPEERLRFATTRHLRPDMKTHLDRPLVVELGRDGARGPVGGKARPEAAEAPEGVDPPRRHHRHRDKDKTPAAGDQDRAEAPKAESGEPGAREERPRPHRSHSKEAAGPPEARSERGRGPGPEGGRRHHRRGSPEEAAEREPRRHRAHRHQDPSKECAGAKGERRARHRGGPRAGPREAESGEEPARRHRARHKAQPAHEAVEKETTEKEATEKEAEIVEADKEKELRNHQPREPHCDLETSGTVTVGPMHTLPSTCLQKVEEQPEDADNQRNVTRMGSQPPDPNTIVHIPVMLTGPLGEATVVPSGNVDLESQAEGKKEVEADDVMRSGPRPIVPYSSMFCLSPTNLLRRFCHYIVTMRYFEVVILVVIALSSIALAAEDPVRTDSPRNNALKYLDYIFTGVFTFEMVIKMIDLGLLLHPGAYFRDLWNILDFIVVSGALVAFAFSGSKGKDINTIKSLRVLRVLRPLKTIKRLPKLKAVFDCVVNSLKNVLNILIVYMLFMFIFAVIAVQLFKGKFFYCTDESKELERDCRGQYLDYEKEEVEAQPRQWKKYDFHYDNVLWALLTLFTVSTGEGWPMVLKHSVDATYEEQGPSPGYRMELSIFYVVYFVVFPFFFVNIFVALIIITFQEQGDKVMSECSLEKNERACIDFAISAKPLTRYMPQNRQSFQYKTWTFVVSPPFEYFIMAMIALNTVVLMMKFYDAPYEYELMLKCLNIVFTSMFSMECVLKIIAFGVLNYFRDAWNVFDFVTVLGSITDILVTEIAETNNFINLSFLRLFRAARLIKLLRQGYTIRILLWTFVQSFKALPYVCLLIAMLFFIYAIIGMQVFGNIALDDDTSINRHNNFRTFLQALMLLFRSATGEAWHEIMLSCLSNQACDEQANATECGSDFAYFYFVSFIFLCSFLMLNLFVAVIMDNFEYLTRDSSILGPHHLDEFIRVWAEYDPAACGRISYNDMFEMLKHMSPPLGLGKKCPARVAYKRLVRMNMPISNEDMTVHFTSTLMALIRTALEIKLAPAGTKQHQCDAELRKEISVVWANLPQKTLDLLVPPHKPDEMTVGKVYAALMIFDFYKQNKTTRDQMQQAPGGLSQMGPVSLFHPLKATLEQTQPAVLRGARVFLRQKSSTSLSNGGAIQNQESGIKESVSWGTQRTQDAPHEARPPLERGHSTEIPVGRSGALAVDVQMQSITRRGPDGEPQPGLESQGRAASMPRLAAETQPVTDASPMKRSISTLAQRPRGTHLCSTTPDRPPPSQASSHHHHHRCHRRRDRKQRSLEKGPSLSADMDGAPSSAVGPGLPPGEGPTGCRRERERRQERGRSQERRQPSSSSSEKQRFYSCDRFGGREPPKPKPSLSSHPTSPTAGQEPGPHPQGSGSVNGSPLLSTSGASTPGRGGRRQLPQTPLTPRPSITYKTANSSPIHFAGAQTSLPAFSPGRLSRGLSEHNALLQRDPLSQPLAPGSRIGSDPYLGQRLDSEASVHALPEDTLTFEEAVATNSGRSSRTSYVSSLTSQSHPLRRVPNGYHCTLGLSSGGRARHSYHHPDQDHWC

## CN(C)c1ncc(C2CC(C)(S(=O)(=O)c3cccc(C(F)(F)F)c3)CCO2)cn1 (stereo not drawn) [SC-413, Dimethyl-[5-[4-methyl-4-[[3-(trifluoromethyl)phenyl]sulfonyl]-tetrahydro-pyran-2-yl]-pyrimidin-2-yl]-amine]
  inhibition at 3 µM: 75 to 95%

## COc1ncc(C2CC(C)(S(=O)(=O)c3cccc(C(F)(F)F)c3)CCO2)cc1F (stereo not drawn) [SC-255, 3-Fluoro-2-methoxy-5-[4-methyl-4-[[3-(trifluoromethyl)phenyl]sulfonyl]-tetrahydro-pyran-2-yl]-pyridine]
  inhibition at 3 µM: > 95%

## CC1(S(=O)(=O)c2cccc(C(F)(F)F)c2)CCOC(COc2ccc(C3CC3)nc2)C1 (single isomer, unassigned) [SC-117, 2-Cyclopropyl-5-[[4-methyl-4-[[3-(trifluoromethyl)phenyl]sulfonyl]-tetrahydro-pyran-2-yl]-methoxy]-pyridine]
3 μM test compound
  Activity Category: %-Inhib (CaV2.2) @3 μM @30 mM KCl: B (%-Inhibition >75% up to ≤95%)
